Data from patent publication US10654788B2, “Method for synthesizing novel compounds derived from 3-hydroxy-cyclopentyl acetic acid” (L'OREAL, priority 2015, dated 2020).

Key:
TGM1 transcripts = assay: Expression of TGM1 transcripts in keratinocytes (RT-qPCR); type: cell-based; details: human epidermal keratinocytes
Experimental: (§1) The influence of compound 5, in particular obtained according to the preparation process described in example 1 above, on the epidermal renewal and the barrier effect of the skin was evaluated in vitro by measuring the expression of the TGM1 and TGM3 transcripts in keratinocytes.
(§2) Human epidermal keratinocytes were incubated for 24 hours in the presence or absence (control) of the compound to be tested. At the end of the incubation, the total RNAs were extracted and then quantified. The expression of the TGM1 and TGM3 transcripts was then measured by means of a 2-step RT-qPCR method by means of a LightCycler® 480 system and according to the SYBR® Green (Qiagen) incorporation technique. The expression of these transcripts was standardized relative to the expression of 2 housekeeping genes, RPL13A and GAPDH. The experiment was reproduced 3 times (N=3).
(§3) The results are expressed as fold change (fc) relative to the control.

TGM3 transcripts = assay: Expression of TGM3 transcripts in keratinocytes (RT-qPCR); type: cell-based; details: human epidermal keratinocytes
Experimental: as §1, §2, §3

[1] = 24 hours incubation, 100 μm, standardized to RPL13A and GAPDH, N=3

In the case of `CCCCCCCCC1C(O)CCC1CC(=O)O` (stereo not shown) [Compound 5], the “expression of the TGM1 transcripts (class in words)” value (TGM1 transcripts; 24 hours) is reported as “moderately stimulated”, the “TGM1 transcript expression, fold change (fc) relative to the control” value (TGM1 transcripts; [1]) is reported as 1.9 fc and the “expression of the TGM3 transcripts (class in words)” value (TGM3 transcripts; 24 hours) is reported as “moderately stimulated”. The “TGM3 transcript expression, fold change (fc) relative to the control” value (TGM3 transcripts; [1]) was 1.8 fc.
